Patent publication US11360080B2, “AhR-ROR-γt complex as a biomarker and therapeutic target for autoimmune disease and IL-17A-associated disease” (NATIONAL HEALTH RESEARCH INSTITUTES, priority 2018, dated 2022)
Counter-ions that a name gives are not always drawn.

Experiments:
[1] = tested on: EAE in wild-type mice; assay: Experimental autoimmune encephalomyelitis (EAE) induction in wild-type mice; assay type: in vivo, mouse; settings: C1 0.556 nmole/g, C2 0.085 nmole/g; for serum IL-17A levels in EAE: day 16
Source text: (A to C) Effect of the GLK inhibitor C1 (verteporfin) administration (0.556 nmole/g every 3 days for 30 days) on serum IL-17A and autoantibodies in Lck-GLK Tg mice. (B) ELISA of indicated serum cytokines in Lck-GLK Tg mice treated with C1 (verteporfin) or PBS. (C) ELISA of serum autoantibodies in Lck-GLK Tg mice treated with C1 (verteporfin) or PBS. Means±SEM are shown. (D) Experimental autoimmune encephalomyelitis (EAE) induction in wild-type mice treated with PBS, or the GLK inhibitor C1 (verteporfin) and C2. Clinical scores are presented on a scale of 1 to 5 (left panel). ELISA of IL-17A in the sera from MOG-immunized mice at day 16 (right panel). (E) Collagen-induced arthritis (CIA) induction in wild-type mice treated with the GLK inhibitor C1 (verteporfin) or PBS. Clinical scores are presented on a scale of 1 to 16 (left panel). ELISA of IL-17A in the sera from collagen-immunized mice at day 28. Means±SEM are shown. *, P value<0.05; **, P value<0.01; ***, P value<0.001 (two-tailed Student's […]). C1 denotes verteporfin; C2 denotes alexidine dihydrochloride.
Moreover, overproduction of autoantibodies in Lck-GLK Tg mice were also abolished by C1 (verteporfin) treatment (FIG. 10C). […] To further verify that the GLK inhibitors also works in IL-17A-mediated animal models, we challenged wild-type mice with C1 (verteporfin) or C2 (alexidine dihydrochloride) during EAE and CIA induction.

[2] = tested on: TC-1 lung cancer cells; assay: TC-1 lung cancer xenograft model in wild-type mice; assay type: in vivo, mouse; settings: i.v. C1 10 uM, C2 17 uM every 3 days for 15 days
Procedure: (A) Murine TC-1 lung cancer cells were subcutaneously inoculated into the right flank of wild-type mice for establishing a TC-1 xenograft model. TC-1 cells inoculated mice were intravenously injected with PBS, C1 (verteporfin) (10 uM), or C2 (alexidine dihydrochloride) (17 uM) every 3 days for 15 days. (B) Photographs of excised TC-1 lung cancers after receiving PBS, C1 (verteporfin) (10 uM), or C2 (17 uM) treatment. (C) The growth (mean tumor volume) of tumor was measured for 15 days. The TC-1 tumor size progression as a function of time post-administration with C1 or C2. N.D., not detectable. C1 denotes verteporfin; C2 denotes alexidine dihydrochloride.

[3] = molecular target: T1, GLK−IQGAP1 interaction (Homo sapiens, UniProt Q8IVH8); assay: FRET assay of HEK293T cells with CFP- and YFP-fused GLK and IQGAP1; assay type: cell-based
T1 construct: expressed in transfected cells; host or cells: HEK293T
T1 sequence (Q8IVH8 whole entry, the tested form may be a part): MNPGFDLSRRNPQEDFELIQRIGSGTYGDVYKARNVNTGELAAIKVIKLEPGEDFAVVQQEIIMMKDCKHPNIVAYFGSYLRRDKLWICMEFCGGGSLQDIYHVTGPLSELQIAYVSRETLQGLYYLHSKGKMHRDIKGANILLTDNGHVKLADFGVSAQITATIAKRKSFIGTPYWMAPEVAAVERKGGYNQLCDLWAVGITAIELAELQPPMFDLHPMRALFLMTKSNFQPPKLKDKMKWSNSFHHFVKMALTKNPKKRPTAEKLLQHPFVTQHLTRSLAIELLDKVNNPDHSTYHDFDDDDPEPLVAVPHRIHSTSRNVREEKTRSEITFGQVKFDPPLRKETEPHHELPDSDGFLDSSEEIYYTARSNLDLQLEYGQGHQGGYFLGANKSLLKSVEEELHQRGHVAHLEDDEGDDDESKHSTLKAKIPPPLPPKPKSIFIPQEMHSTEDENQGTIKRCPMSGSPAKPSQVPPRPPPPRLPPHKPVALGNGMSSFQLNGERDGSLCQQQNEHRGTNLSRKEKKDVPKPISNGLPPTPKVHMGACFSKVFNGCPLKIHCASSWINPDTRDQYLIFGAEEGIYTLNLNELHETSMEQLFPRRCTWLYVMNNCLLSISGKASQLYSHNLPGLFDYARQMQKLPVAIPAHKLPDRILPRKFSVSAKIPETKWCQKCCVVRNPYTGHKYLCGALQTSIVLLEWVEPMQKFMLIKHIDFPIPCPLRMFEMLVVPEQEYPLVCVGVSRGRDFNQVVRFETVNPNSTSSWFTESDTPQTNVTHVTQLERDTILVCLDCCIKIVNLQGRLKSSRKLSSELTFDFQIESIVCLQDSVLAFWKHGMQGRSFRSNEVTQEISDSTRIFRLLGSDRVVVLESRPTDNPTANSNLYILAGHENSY
Procedure: (A) Silver-stained gel of anti-Flag immunoprecipitates from HEK293T cells transfected with empty vector or Flag-tagged GLK in the presence or absence of the tyrosine phosphatase inhibitor pervanadate (25 μM). Arrows indicate the positions of GLK or GLK-interacting proteins. (B) Four pervanadate-induced tyrosine phosphorylation residues of GLK proteins were listed. (C and D) Co-immunoprecipitation of anti-Flag (C) or anti-Myc (D) immunocomplexes from lysates of HEK293T cells transfected with Flag-tagged GLK, Myc-tagged IQGAP1, or both plasmids. The whole-cell lysate immunoblots before immunoprecipitation (Pre-IP) are shown at the bottom of each panel. β-Tubulin was used as the loading control. (E) Co-immunoprecipitation of anti-Flag immunocomplexes from lysates of HEK293T cells transfected with either Flag-tagged GLK or Flag-tagged GLK mutant (Y366F, Y379F, Y574F, or Y735F). […]
FRET signal in live cells was detected by EnVision 2104 Multilabel Plate Reader (Perkin Elmer). The reaction was excited by light passing through a 430-nm filter (with 8 nm bandwidth), and the intensity of emitted fluorescence passing through a 530-nm filter (with 8 nm bandwidth) was recorded. If the protein-protein pair is in close proximity (1-10 nm), a 530-nm signal will be detected. […]

Row | SMILES | disease severity (clinical score) in EAE [1] | serum IL-17A levels in EAE [1] | tumor growth (mean tumor volume) [2] | FRET signals of GLK−IQGAP1 interaction [3]
1 | C=Cc1c(C)c2cc3nc(cc4[nH]c(cc5nc(cc1[nH]2)C(C)=C5CCC(=O)O)c(CCC(=O)OC)c4C)[C@@]1(C)C3=CC=C(C(=O)OC)[C@H]1C(=O)OC [C1, verteporfin] | significantly suppressed | significantly suppressed | suppressed | inhibited
2 | CCCCC(CC)CNC(=N)NC(=N)NCCCCCCNC(=N)NC(=N)NCC(CC)CCCC (centres unmarked) [C2, alexidine dihydrochloride] | significantly suppressed | significantly suppressed | suppressed | inhibited
